Consider 20 molecules from PubChem BioAssay (NCI).

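96-well plates; 48 h exposure; 5 concentrations. Endpoints by linear interpolation between flanking doses. Not reached: highest tested concentration assigned. GI50 = concentration required for 50% inhibition of growth. TGI: concentration producing complete growth inhibition.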

Holding throughout (experiment): NCI tumour cell line growth inhibition, 48 h
Experiment [1] deals with A549 NSCLC.
Experiment [2] relates to HCT-116 colon.
Experiment [3] has as its system LOX IMVI melanoma.
Experiment [4] has as its system M14 melanoma.
For experiment [5], the system named is OVCAR-3 ovarian.
Experiment [6] deals with SF-295 CNS.
Experiment [7] has as its system SK-OV-3 ovarian.
Experiment [8] deals with SN12C renal.
In experiment [9] the test system is UACC-62 melanoma.
Experiment [10] has as its system RPMI-8226 leukemia.

For the molecule `CCN1N=CSC12C(=O)N(c1ccccc1)C(=O)N2c1ccccc1` (stereo unspecified), the TGI in experiment [1], in [2], in experiment [3], in experiment [4], in experiment [5] and in experiment [6] was above 100 µM each time. For the same molecule, the TGI in experiment [7], in experiment [8] and in experiment [9] was above 100 µM throughout.

Regarding `CC(=O)OCC1OC(n2cnc3c(I)nc(I)nc32)C(OC(C)=O)C1OC(C)=O` (stereo unspecified), the TGI in [1] came to 32.7 µM; in [2] it was 16.7 µM; in experiment [3] it was 29.4 µM; in experiment [4] it was 31.6 µM; in experiment [5], 20.1 µM; in experiment [10], 31.1 µM. Further, the TGI was 35.1 µM in experiment [6], 26.7 µM in experiment [8] and 27.2 µM in experiment [9].

As to `CC[C@]12C=CCN3CC[C@]4(C(=C(C(=O)OC)C1)Nc1ccccc14)[C@@H]32`, the GI50 in experiment [1] was 12.4 µM; in [2], 3.16 µM; in [3], 1.94 µM; in [4], 2.97 µM; in [5] it was 2.45 µM; in experiment [10], 3.17 µM. Also, the GI50 is 13 µM in experiment [6], 3.62 µM in experiment [8] and 2.89 µM in [9]. Moreover, the TGI turned out to be 31.8 µM in experiment [1]; 10.9 µM in experiment [2]; 4.13 µM in [3]; 12.5 µM in [4]; 7.51 µM in experiment [5]; 17.8 µM in experiment [10]. The TGI in [6] is 26.6 µM; in [8], 18.2 µM; in [9], 12 µM.

As for `COc1ccc(C(NCCNC(c2ccc(OC)c(OC)c2)c2cc3c(cc2O)OCO3)c2cc3c(cc2O)OCO3)cc1OC` (stereo unspecified), the TGI in experiment [1] was 32.3 µM; in experiment [2], 6.05 µM; in experiment [3], 3.51 µM; in [4], 8.39 µM; in experiment [5] it was 6.82 µM; in experiment [6], 17.8 µM. The TGI in experiment [7] came out at 18.8 µM; in experiment [8], 4.55 µM; in experiment [9], 7.52 µM.

As to `COc1ccc(Nc2nc3c(N)cc(C(F)(F)F)cc3nc2-c2ccccc2)cc1`, the TGI in experiment [1], in [2], in [3], in experiment [4], in experiment [5] and in experiment [6] was above 100 µM each time. In addition, the TGI in experiment [7], in experiment [8] and in experiment [9] was above 100 µM in each case.

For the molecule `COC(=O)C12C3C=CC(O3)C1C1C=CC2O1` (stereo unspecified), the TGI in [1], in [4], in [5], in experiment [10], in experiment [6] and in [7] was above 100 µM each time. In addition, the TGI in experiment [8] was above 100 µM.

As for `Cn1cc(-c2nonc2-c2cn(C)c3ccc(Br)cc23)c2ccccc21`, the GI50 in experiment [1] was 5.29 µM; in [2], 4.3 µM; in experiment [4], 3.93 µM; in [5], 2.8 µM; in [10], 3.32 µM; in [6] it was 2.89 µM. The GI50 in experiment [7] is 7.52 µM; in experiment [8], 5.25 µM; in experiment [9], 3.37 µM. The TGI in experiment [1] is above 100 µM; in experiment [2], above 100 µM; in experiment [4], above 100 µM; in experiment [5], 8.61 µM; in experiment [10] it was above 100 µM; in experiment [6] it was above 100 µM. Further, the TGI in [7], in experiment [8] and in [9] was above 100 µM throughout.

As to `c1ccc2c(c1)SCCCSCCCS2`, the TGI in [1], in experiment [2], in experiment [3], in experiment [4], in [5] and in [6] was above 100 µM each time. The TGI in experiment [7], in [8] and in experiment [9] was above 100 µM throughout.

For the molecule `COc1cc2nc(-c3ccc(Cl)cc3)cc(OCCCN3CCC(O)CC3)c2cc1OC`, the GI50 in [1] was 2.2 µM; in experiment [2] it was 1.44 µM; in [3], 0.227 µM; in experiment [4] it was 0.591 µM; in experiment [5], 3.24 µM; in experiment [6], 1.66 µM. Further, the GI50 was 3.17 µM in experiment [7], 1.26 µM in experiment [8] and 1.9 µM in experiment [9]. The TGI was found to be 14.8 µM in [1]; 11.3 µM in experiment [2]; 0.589 µM in experiment [3]; 2.21 µM in experiment [4]; 28.3 µM in experiment [5]; 3.58 µM in [6]. In addition, the TGI in experiment [7] was 21.8 µM; in experiment [8] it was 22.1 µM; in [9] it was 4.04 µM.

With `COC12c3ccccc3-c3ccccc3C1[C@@H](C(=O)O)[C@H]2C(=O)O` (stereo partly specified), the TGI in [3], in experiment [4], in [5], in experiment [10], in experiment [6] and in [7] was above 10 µM throughout. Also, in experiment [8], the TGI is above 10 µM.

Regarding `CCOC(=O)c1c(-c2ccccc2)[nH]c2ccccc2c1=O`, the TGI in experiment [1], in [2], in experiment [4], in experiment [10], in experiment [6] and in experiment [7] was above 100 µM each time.

Regarding `Cc1ccc(NC(=O)CCC(=O)C2CC(=O)CCC2=O)cc1C` (stereo unspecified), the TGI in experiment [1], in experiment [2], in experiment [3], in experiment [4], in experiment [5] and in [6] was above 100 µM each time. Further, the TGI in experiment [7], in experiment [8] and in [9] was above 100 µM in each case.

With `COc1cc(C2c3cc4c(cc3[C@@H](OCCN)[C@H]3COC(=O)C23)OCO4)cc(OC)c1O` (stereo partly specified), the TGI in [1] worked out at 1.34 µM; in experiment [2], 4.89 µM; in [3] it was 0.395 µM; in experiment [4], 3.34 µM; in experiment [5], 3.06 µM; in [6] it was 0.543 µM. The TGI in [7] is 1.48 µM; in experiment [8] it was 0.562 µM; in [9] it was 0.579 µM.

Regarding `COc1ccc(C(=O)Nc2ccccc2C#N)cc1`, the TGI in experiment [1], in [2], in experiment [3], in experiment [5], in [10] and in experiment [6] was above 100 µM throughout. Besides, the TGI in [8] and in [9] was above 100 µM throughout.

For `Nc1cc2c3c(cccc3c1)C(=O)N(CCN1CCN(CCN3C(=O)c4cccc5cc(N)cc(c45)C3=O)CC1)C2=O`, the TGI in [1], in [2], in [4], in experiment [5], in experiment [10] and in experiment [6] was above 100 µM throughout. Further, the TGI in experiment [7], in experiment [8] and in experiment [9] was above 100 µM each time.

With `O=C1NCC2=C1CCC1c3ccccc3CCN21` (stereo unspecified), the TGI in [1], in experiment [2], in [3], in experiment [5], in experiment [6] and in experiment [7] was above 100 µM each time. The TGI in experiment [8] and in experiment [9] was above 100 µM throughout.

Consider `CNS(=O)(=O)NN(C)S(=O)(=O)c1ccc(C)cc1`, for which the TGI in experiment [1], in experiment [2], in experiment [4], in [5], in experiment [10] and in [6] was above 100 µM in each case. For the same molecule, the TGI in experiment [7], in experiment [8] and in experiment [9] was above 100 µM in each case.

In the case of `CCCCCNC(=O)C1C(=O)N(CCCCC)C(=O)/C1=N\N` (stereo unspecified), the TGI in experiment [1], in experiment [4], in experiment [5], in experiment [6], in experiment [8] and in [9] was above 100 µM in each case.

Consider `CC1=C(C(=O)Nc2cc(F)c(F)cc2F)C(c2cccc([N+](=O)[O-])c2)C(C(=O)Nc2ccccc2C(F)(F)F)=C(C)N1` (stereo unspecified), for which the TGI was above 100 µM in [1]; 39.4 µM in [3]; 55.5 µM in experiment [4]; 41.9 µM in experiment [5]; 37.4 µM in experiment [10]; 48.8 µM in experiment [6]. The TGI was 88.9 µM in experiment [7] and 56.5 µM in experiment [8].

For `OCCC#Cc1ccccc1C#Cc1ccccc1`, the GI50 in experiment [1] was 36.3 µM; in experiment [2], 17.5 µM; in [4] it was 16 µM; in experiment [10] it was 12.4 µM; in experiment [6] it was 5.47 µM; in [7], 17.3 µM. Moreover, the GI50 in [8] is 12.5 µM; in experiment [9] it was 11.9 µM. Moreover, the TGI in experiment [1] stood at 83.2 µM; in [2], 33.6 µM; in [4] it was 31.6 µM; in experiment [10], 41.8 µM; in [6] it was 19.8 µM; in [7], 39.4 µM. In addition, the values for the TGI in experiment [8] and in [9] were 26.8 µM and 24.4 µM, respectively.
